Measured values reported in ChEMBL document CHEMBL1201862, “PubChem BioAssay data set” (2004).
Counter-ions that a name gives are not always drawn.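 Values below derive from 48-hour exposures of cells grown in 96-well plates, with endpoints linearly interpolated between the two concentrations bracketing the appropriate inhibition level. GI50 marks 50% less growth.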 The source made the active and inactive calls. No stated cut-off is given here; in the data, active = GI50 up to about 1.1 µM and inactive = higher.

What was measured:
Experiment in all cases: growth of human tumour cells (NCI), 48 h
OVCAR-3 = tested on: OVCAR-3
TK-10 = tested on: TK-10
SNB-75 = tested on: SNB-75
K562 = tested on: K562
A549 = tested on: A549
M14 = tested on: M14
LOX IMVI = tested on: LOX IMVI
UACC-62 = tested on: UACC-62
SNB-19 = tested on: SNB-19
HCC 2998 = tested on: HCC 2998
M19-MEL = tested on: M19-MEL
IGROV-1 = tested on: IGROV-1
NCI-H23 = tested on: NCI-H23
SF-268 = tested on: SF-268
SF-539 = tested on: SF-539
U-251 = tested on: U-251
UO-31 = tested on: UO-31
OVCAR-8 = tested on: OVCAR-8
MDA-N = tested on: MDA-N
SR = tested on: SR

| SMILES | GI50 (OVCAR-3) | GI50 (TK-10) | GI50 (SNB-75) | GI50 (K562) | GI50 (A549) | GI50 (M14) | GI50 (LOX IMVI) | GI50 (UACC-62) | GI50 (SNB-19) | GI50 (HCC 2998) | GI50 (M19-MEL) | GI50 (IGROV-1) | GI50 (NCI-H23) | GI50 (SF-268) | GI50 (SF-539) | GI50 (U-251) | GI50 (UO-31) | GI50 (OVCAR-8) | GI50 (MDA-N) | GI50 (SR) |
| --- | --- | --- | --- | --- | --- | --- | --- | --- | --- | --- | --- | --- | --- | --- | --- | --- | --- | --- | --- | --- |
| NN/C(Cc1ccccc1)=N\NO | > 100 µM (inactive) | > 100 µM (inactive) | > 100 µM (inactive) | 85.7 µM (inactive) | > 100 µM (inactive) | 63.8 µM (inactive) | 33.3 µM (inactive) | 56.2 µM (inactive) | > 100 µM (inactive) | > 100 µM (inactive) | > 100 µM (inactive) | > 100 µM (inactive) | 57.4 µM (inactive) | > 100 µM (inactive) | > 100 µM (inactive) | – | – | – | – | – |
| CC(=O)Nc1ccc(C(=O)NN2C(=O)C(Cl)C2c2ccc(O)cc2)cc1 (stereo not drawn) | > 100 µM (inactive) | > 100 µM (inactive) | > 100 µM (inactive) | > 100 µM (inactive) | > 100 µM (inactive) | > 100 µM (inactive) | > 100 µM (inactive) | > 100 µM (inactive) | > 100 µM (inactive) | – | > 100 µM (inactive) | > 100 µM (inactive) | – | 64.1 µM (inactive) | > 100 µM (inactive) | > 100 µM (inactive) | > 100 µM (inactive) | 77.3 µM (inactive) | – | – |
| O=C(N/N=C/c1ccc2c(c1)CCC2)c1ccccc1O | 16.8 µM (inactive) | 23 µM (inactive) | 16.8 µM (inactive) | 38.9 µM (inactive) | 21.2 µM (inactive) | 30 µM (inactive) | 27.8 µM (inactive) | 22 µM (inactive) | 19.8 µM (inactive) | 13.3 µM (inactive) | – | 17.8 µM (inactive) | 24.2 µM (inactive) | 23.8 µM (inactive) | 31.5 µM (inactive) | 17.7 µM (inactive) | 29 µM (inactive) | 25.4 µM (inactive) | 19.4 µM (inactive) | 30.9 µM (inactive) |
| CC(=O)Nc1ccc(NCC(=O)Nn2cnc3ccc(S(=O)(=O)Nc4ccc(NC(C)=O)cc4)cc3c2=O)cc1 | > 100 µM (inactive) | > 100 µM (inactive) | > 100 µM (inactive) | > 100 µM (inactive) | > 100 µM (inactive) | > 100 µM (inactive) | > 100 µM (inactive) | > 100 µM (inactive) | > 100 µM (inactive) | > 100 µM (inactive) | – | > 100 µM (inactive) | > 100 µM (inactive) | > 100 µM (inactive) | > 100 µM (inactive) | > 100 µM (inactive) | > 100 µM (inactive) | > 100 µM (inactive) | > 100 µM (inactive) | > 100 µM (inactive) |
| CC[N+](C)(CC)CCNC(=O)C(O)(c1ccccc1)c1ccccc1 | > 100 µM (inactive) | > 100 µM (inactive) | 35.6 µM (inactive) | > 100 µM (inactive) | > 100 µM (inactive) | > 100 µM (inactive) | 0.2 µM (active) | > 100 µM (inactive) | > 100 µM (inactive) | > 100 µM (inactive) | – | > 100 µM (inactive) | > 100 µM (inactive) | > 100 µM (inactive) | > 100 µM (inactive) | > 100 µM (inactive) | > 100 µM (inactive) | > 100 µM (inactive) | > 100 µM (inactive) | > 100 µM (inactive) |
| O=C(CC1(O)C(=O)Nc2c(Cl)cc(Cl)cc21)c1ccccc1 (stereo not drawn) | > 100 µM (inactive) | > 100 µM (inactive) | 38.6 µM (inactive) | 47.4 µM (inactive) | > 100 µM (inactive) | > 100 µM (inactive) | > 100 µM (inactive) | 59.4 µM (inactive) | > 100 µM (inactive) | – | 31.6 µM (inactive) | > 100 µM (inactive) | 77.6 µM (inactive) | 76 µM (inactive) | > 100 µM (inactive) | – | 52.1 µM (inactive) | 71.8 µM (inactive) | – | – |
| Cc1cc(N)c2ccccc2[n+]1CCCCCCCCCC[n+]1c(C)cc(N)c2ccccc21 [DEQUALINIUM CHLORIDE] | 2.27 µM (inactive) | 4.09 µM (inactive) | 0.986 µM (active) | 0.379 µM (active) | 0.887 µM (active) | 2.59 µM (inactive) | 1.11 µM (active) | 1.82 µM (inactive) | 0.783 µM (active) | 0.904 µM (active) | – | 1.72 µM (inactive) | 0.41 µM (active) | 1.39 µM (inactive) | 1.83 µM (inactive) | 0.258 µM (active) | 4.43 µM (inactive) | 1.9 µM (inactive) | 1.33 µM (inactive) | 0.472 µM (active) |
| c1ccc(N/N=N/c2ccc(-c3nc4ccccc4o3)cc2)nc1 | 27.3 µM (inactive) | 37.4 µM (inactive) | 20.4 µM (inactive) | 42.9 µM (inactive) | 46.7 µM (inactive) | 60.7 µM (inactive) | 37.2 µM (inactive) | 40.8 µM (inactive) | 75.2 µM (inactive) | 20 µM (inactive) | – | 28.6 µM (inactive) | 34 µM (inactive) | 83.6 µM (inactive) | 55.3 µM (inactive) | 37.9 µM (inactive) | 26.6 µM (inactive) | 35.8 µM (inactive) | 68.7 µM (inactive) | 38.5 µM (inactive) |
| C=CCc1cc(OC)c2c(c1)C(OC)CC(c1ccc(OC)c(OC)c1)O2 (stereo not drawn) | > 100 µM (inactive) | > 100 µM (inactive) | 54.8 µM (inactive) | 61.8 µM (inactive) | > 100 µM (inactive) | 78.2 µM (inactive) | > 100 µM (inactive) | > 100 µM (inactive) | > 100 µM (inactive) | > 100 µM (inactive) | > 100 µM (inactive) | > 100 µM (inactive) | – | 73.8 µM (inactive) | > 100 µM (inactive) | > 100 µM (inactive) | 42.3 µM (inactive) | > 100 µM (inactive) | – | – |
| CC(C)C(NCc1c(O)ccc2c(-c3ccccc3)cc(=O)oc12)C(=O)O (stereo not drawn) | > 100 µM (inactive) | > 100 µM (inactive) | 83.9 µM (inactive) | > 100 µM (inactive) | > 100 µM (inactive) | > 100 µM (inactive) | > 100 µM (inactive) | > 100 µM (inactive) | > 100 µM (inactive) | > 100 µM (inactive) | – | > 100 µM (inactive) | > 100 µM (inactive) | > 100 µM (inactive) | > 100 µM (inactive) | > 100 µM (inactive) | > 100 µM (inactive) | > 100 µM (inactive) | > 100 µM (inactive) | > 100 µM (inactive) |
| Cc1cc(C)nc(NS(=O)(=O)c2ccc(NNc3c4ccccc4nc4c(C(=O)Nc5ccc(S(=O)(=O)Nc6ncccn6)cc5)cccc34)cc2)n1 | 19.2 µM (inactive) | 50.9 µM (inactive) | 37.5 µM (inactive) | 28.6 µM (inactive) | 38.7 µM (inactive) | 33.7 µM (inactive) | 20.7 µM (inactive) | 25.2 µM (inactive) | 34.6 µM (inactive) | 26.7 µM (inactive) | – | 35 µM (inactive) | 23 µM (inactive) | 31.9 µM (inactive) | 27 µM (inactive) | 21.8 µM (inactive) | 30.2 µM (inactive) | 26.2 µM (inactive) | 31.1 µM (inactive) | 8.41 µM (inactive) |
| CC(C)=CCCC(C)C1=C(O)C(=O)C(C)=CC1=O (stereo not drawn) | 7.53 µM (inactive) | 7.73 µM (inactive) | 18.4 µM (inactive) | 0.336 µM (active) | 45.5 µM (inactive) | 17.2 µM (inactive) | 3.66 µM (inactive) | 13.4 µM (inactive) | 38.1 µM (inactive) | 12.8 µM (inactive) | – | 15.6 µM (inactive) | 16.7 µM (inactive) | 20.2 µM (inactive) | 19.6 µM (inactive) | 22.9 µM (inactive) | 7.82 µM (inactive) | 18.1 µM (inactive) | 5.78 µM (inactive) | 1.29 µM (inactive) |
| C=CCN(CCNS(=O)(=O)c1ccc(C)cc1)S(=O)(=O)c1ccc(C)cc1 | 19 µM (inactive) | > 55.2 µM (inactive) | 15.1 µM (inactive) | > 54.1 µM (inactive) | 13.9 µM (inactive) | 14 µM (inactive) | 17.3 µM (inactive) | 73.6 µM (inactive) | > 76.6 µM (inactive) | > 69.5 µM (inactive) | – | 76.2 µM (inactive) | > 50.1 µM (inactive) | 10.4 µM (inactive) | 75.9 µM (inactive) | > 49.5 µM (inactive) | > 50.2 µM (inactive) | 17.3 µM (inactive) | 46.3 µM (inactive) | > 100 µM (inactive) |
| COc1ccc(C(=O)Cn2c(C(C)=O)nc3ccccc32)cc1 | 6.31 µM (inactive) | > 76.6 µM (inactive) | > 100 µM (inactive) | 4.4 µM (inactive) | 5.31 µM (inactive) | 17.5 µM (inactive) | 2.91 µM (inactive) | 6.89 µM (inactive) | > 34.1 µM (inactive) | 29.9 µM (inactive) | – | 6.73 µM (inactive) | 13.2 µM (inactive) | > 64.9 µM (inactive) | > 53.5 µM (inactive) | 3.74 µM (inactive) | 11.8 µM (inactive) | 3.8 µM (inactive) | 10.7 µM (inactive) | 4.92 µM (inactive) |
| O=C1c2cccc3cccc(c23)C(=O)N1CCCNCCCCNCCCNCCCN1C(=O)c2cccc3cccc(c23)C1=O [BISNAPHTHALIMIDOPROPYL SPERMIDINE TRIHYDROBROMIDE] | 0.662 µM (active) | 2.55 µM (inactive) | 0.319 µM (active) | 0.557 µM (active) | 0.301 µM (active) | 1.52 µM (inactive) | 0.316 µM (active) | 0.458 µM (active) | 0.403 µM (active) | 0.586 µM (active) | – | 0.472 µM (active) | 0.35 µM (active) | 0.282 µM (active) | 0.585 µM (active) | 0.338 µM (active) | 6.5 µM (inactive) | 0.748 µM (active) | 0.792 µM (active) | 0.0787 µM (active) |
